Laboratory results taken from ChEMBL document CHEMBL3739386, “Synthesis and biological evaluation of picolinamides and thiazole-2-carboxamides as mGluR5 (metabotropic glutamate receptor 5) antagonists” (Bioorg Med Chem Lett, 2016).

Columns and labels:
CYP3A4 = CYP3A4 (Homo sapiens, UniProt P08684); assay: Inhibition of human CYP3A4 assessed as remaining activity at 10 uM; format: ADME; conditions: read-out: Activity
hERG (KCNH2) [1] = biological target: T1, hERG (KCNH2) (Homo sapiens, UniProt Q12809); assay: Inhibition of human ERG at 10 uM by patch-clamp method
T1 sequence (Q12809 whole entry): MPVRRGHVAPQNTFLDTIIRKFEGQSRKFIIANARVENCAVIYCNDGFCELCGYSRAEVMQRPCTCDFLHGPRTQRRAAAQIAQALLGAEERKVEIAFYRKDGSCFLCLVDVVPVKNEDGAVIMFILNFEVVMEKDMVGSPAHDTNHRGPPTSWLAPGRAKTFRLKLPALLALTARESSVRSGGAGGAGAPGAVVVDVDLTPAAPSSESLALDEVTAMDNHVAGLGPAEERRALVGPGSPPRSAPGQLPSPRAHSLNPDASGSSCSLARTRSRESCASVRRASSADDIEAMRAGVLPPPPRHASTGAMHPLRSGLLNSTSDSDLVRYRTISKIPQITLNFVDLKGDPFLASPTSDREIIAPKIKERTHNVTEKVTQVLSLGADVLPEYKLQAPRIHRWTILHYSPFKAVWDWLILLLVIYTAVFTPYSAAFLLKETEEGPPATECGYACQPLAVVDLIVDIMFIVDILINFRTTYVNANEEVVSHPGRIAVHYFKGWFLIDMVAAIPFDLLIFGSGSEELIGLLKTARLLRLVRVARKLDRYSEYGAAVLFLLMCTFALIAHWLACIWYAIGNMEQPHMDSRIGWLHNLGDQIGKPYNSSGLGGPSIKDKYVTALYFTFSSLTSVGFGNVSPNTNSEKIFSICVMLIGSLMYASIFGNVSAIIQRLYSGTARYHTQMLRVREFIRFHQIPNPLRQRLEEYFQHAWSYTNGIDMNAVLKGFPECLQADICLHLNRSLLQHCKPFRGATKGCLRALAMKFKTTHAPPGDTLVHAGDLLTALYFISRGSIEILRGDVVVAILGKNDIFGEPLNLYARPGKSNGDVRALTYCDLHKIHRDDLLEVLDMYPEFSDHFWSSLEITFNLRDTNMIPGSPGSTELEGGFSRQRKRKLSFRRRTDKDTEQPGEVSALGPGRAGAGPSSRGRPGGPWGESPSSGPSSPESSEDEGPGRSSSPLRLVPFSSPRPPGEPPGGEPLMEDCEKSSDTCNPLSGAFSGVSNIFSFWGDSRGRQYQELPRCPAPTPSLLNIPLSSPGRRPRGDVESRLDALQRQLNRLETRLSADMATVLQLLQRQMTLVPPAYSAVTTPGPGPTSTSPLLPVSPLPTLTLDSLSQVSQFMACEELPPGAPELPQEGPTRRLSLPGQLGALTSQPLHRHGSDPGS

[2] = Metabolic stability in human liver microsomes assessed as compound remaining at 1 uM after 30 mins; format: ADME; conditions: read-out: Stability
[3] = biological target: T2, Metabotropic glutamate receptor 5 (Homo sapiens, UniProt P41594); assay: Antagonist activity at mGlu5 receptor (unknown origin) expressed in HEK cells assessed as inhibition of glutamate-induced calcium flux at 1 uM by fluorescence based assay; format: functional, cell-based; conditions: HEK293
Target sequence in this assay (P41594 21-1212 limits assumed): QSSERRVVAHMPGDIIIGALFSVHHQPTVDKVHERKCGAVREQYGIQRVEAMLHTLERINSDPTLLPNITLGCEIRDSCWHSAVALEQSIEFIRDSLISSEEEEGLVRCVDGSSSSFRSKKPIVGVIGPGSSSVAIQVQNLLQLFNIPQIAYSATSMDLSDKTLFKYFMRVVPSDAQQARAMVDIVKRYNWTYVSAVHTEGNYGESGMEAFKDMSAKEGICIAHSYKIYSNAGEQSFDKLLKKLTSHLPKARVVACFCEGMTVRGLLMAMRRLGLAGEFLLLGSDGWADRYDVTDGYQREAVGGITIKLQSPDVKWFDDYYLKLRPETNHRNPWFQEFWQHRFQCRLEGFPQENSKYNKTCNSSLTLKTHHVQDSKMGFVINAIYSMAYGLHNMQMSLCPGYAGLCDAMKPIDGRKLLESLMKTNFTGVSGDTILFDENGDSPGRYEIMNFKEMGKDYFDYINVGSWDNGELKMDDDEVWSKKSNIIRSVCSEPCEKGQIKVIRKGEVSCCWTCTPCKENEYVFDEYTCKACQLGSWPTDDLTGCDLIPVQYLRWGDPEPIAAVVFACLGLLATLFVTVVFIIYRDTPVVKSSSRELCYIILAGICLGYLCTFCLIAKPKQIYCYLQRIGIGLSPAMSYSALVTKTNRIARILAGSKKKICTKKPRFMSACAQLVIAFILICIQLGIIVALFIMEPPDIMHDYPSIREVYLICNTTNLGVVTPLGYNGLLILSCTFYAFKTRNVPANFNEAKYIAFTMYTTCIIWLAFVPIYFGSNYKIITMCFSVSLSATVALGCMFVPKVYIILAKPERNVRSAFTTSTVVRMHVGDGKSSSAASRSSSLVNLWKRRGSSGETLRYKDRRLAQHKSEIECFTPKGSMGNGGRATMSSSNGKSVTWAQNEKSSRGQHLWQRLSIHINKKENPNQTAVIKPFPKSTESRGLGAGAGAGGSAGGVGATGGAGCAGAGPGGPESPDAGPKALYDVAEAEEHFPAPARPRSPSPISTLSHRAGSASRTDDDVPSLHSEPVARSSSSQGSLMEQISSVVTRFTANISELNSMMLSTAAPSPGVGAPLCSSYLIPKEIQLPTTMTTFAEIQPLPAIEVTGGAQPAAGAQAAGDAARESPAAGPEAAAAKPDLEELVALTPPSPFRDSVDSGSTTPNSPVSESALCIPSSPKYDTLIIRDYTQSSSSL

hERG (KCNH2) [4] = biological target: T1, hERG (KCNH2); assay: Inhibition of human ERG at 0.1 uM by patch-clamp method
[5] = biological target: T2, Metabotropic glutamate receptor 5; assay: Antagonist activity at mGlu5 receptor (unknown origin) expressed in HEK cells assessed as inhibition of glutamate-induced calcium flux by fluorescence based assay; format: functional, cell-based, HEK293
CYP2D6 = CYP2D6 (Homo sapiens, UniProt P10635); assay: Inhibition of human CYP2D6 assessed as remaining activity at 10 uM; format: ADME; conditions: read-out: Activity
Sequence of CYP2D6 (P10635 whole entry): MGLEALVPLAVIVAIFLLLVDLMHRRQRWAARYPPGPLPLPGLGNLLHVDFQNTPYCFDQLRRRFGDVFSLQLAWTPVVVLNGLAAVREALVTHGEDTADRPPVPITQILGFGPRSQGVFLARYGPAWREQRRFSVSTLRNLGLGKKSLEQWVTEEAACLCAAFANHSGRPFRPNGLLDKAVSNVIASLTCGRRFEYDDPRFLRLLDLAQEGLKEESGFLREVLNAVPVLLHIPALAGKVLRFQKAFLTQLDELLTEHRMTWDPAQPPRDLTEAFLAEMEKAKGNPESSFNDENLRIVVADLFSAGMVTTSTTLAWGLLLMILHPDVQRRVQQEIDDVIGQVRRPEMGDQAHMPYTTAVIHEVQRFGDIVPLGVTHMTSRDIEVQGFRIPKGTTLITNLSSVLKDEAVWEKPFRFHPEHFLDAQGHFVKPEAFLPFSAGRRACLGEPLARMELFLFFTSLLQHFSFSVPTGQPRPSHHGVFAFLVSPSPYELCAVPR

CYP2C9 = CYP2C9 (Homo sapiens, UniProt P11712); assay: Inhibition of human CYP2C9 assessed as remaining activity at 10 uM; format: ADME; conditions: read-out: Activity
Sequence of CYP2C9 (P11712 whole entry): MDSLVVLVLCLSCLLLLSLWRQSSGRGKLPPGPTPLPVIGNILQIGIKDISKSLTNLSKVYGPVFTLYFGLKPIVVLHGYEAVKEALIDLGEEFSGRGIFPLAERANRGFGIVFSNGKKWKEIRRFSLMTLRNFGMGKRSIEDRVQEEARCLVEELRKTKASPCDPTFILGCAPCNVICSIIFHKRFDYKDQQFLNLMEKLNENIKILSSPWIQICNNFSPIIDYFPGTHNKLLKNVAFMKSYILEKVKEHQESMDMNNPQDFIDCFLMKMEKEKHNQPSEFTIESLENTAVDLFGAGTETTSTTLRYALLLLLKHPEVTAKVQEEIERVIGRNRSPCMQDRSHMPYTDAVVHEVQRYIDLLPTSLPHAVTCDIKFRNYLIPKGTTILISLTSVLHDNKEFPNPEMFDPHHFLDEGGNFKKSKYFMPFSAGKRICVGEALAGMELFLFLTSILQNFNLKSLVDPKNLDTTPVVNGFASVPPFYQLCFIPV

CYP2C19 = CYP2C19 (Homo sapiens, UniProt P33261); assay: Inhibition of human CYP2C19 assessed as remaining activity at 10 uM; format: ADME; conditions: read-out: Activity
Sequence of CYP2C19 (P33261 whole entry): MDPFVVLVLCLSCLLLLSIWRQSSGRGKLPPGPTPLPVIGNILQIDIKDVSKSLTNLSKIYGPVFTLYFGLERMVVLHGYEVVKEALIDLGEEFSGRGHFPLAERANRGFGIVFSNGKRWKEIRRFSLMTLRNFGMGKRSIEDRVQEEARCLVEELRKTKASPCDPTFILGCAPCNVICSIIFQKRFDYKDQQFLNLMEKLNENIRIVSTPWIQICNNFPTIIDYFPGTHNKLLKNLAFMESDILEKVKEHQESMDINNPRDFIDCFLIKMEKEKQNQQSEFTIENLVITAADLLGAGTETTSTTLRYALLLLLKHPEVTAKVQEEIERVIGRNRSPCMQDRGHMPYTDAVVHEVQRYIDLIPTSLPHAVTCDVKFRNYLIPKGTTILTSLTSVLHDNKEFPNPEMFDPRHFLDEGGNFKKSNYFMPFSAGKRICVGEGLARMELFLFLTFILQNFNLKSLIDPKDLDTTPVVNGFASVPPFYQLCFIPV

CYP1A2 = biological target: T3, CYP1A2 (Homo sapiens, UniProt P05177); assay: Inhibition of human CYP1A2 assessed as remaining activity at 10 uM; format: ADME; conditions: read-out: Activity
T3 sequence (P05177 whole entry): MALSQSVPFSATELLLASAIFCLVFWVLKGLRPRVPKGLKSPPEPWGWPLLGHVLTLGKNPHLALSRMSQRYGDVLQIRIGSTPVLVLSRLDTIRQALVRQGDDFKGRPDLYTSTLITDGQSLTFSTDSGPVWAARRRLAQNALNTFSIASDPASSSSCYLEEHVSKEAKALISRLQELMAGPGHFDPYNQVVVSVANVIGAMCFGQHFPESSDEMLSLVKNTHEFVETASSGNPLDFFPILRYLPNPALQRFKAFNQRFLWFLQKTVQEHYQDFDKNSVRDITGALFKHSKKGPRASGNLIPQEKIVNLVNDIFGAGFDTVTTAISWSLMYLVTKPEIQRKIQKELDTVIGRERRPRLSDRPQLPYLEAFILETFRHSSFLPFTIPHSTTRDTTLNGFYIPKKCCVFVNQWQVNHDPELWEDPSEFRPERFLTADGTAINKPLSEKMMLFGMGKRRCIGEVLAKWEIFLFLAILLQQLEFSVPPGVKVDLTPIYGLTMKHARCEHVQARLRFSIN

hERG (KCNH2) [6] = biological target: T1, hERG (KCNH2); assay: Inhibition of human ERG at 1 uM by patch-clamp method
[7] = biological target: T2, Metabotropic glutamate receptor 5; assay: Antagonist activity at mGlu5 receptor (unknown origin) expressed in HEK cells assessed as inhibition of glutamate-induced calcium flux at 10 uM by fluorescence based assay; format: functional, cell-based; conditions: HEK293
Target sequence in this assay (P41594 21-1212 limits assumed): as the sequence (P41594 21-1212 limits assumed) above

Sequence of CYP3A4 (P08684 whole entry): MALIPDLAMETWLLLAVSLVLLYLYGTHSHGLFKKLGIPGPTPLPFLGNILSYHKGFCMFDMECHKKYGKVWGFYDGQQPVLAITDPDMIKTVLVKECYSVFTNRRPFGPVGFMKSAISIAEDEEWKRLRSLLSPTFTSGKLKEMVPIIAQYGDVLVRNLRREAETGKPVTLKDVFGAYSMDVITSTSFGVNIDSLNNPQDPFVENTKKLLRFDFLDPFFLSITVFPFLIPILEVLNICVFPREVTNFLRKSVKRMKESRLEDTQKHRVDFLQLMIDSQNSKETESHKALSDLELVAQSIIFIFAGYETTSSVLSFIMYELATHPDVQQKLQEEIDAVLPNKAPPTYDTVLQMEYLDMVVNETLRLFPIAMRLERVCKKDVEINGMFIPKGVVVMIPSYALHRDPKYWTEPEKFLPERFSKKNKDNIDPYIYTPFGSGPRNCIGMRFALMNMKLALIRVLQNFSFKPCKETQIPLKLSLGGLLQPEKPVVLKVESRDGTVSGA

inhibition [3] [%]	inhibition [7] [%]	SMILES	also measured
71.1	–	O=C(Nc1cccc(Br)c1)c1nc(Br)cs1	activity at 10 µM (CYP3A4): 84.9%; inhibition at 10 µM (hERG (KCNH2) [1]): 39.6%; remaining at 0.5 h, 1 µM [2]: 37.3%; inhibition at 0.1 µM (hERG (KCNH2) [4]): 16.3%; IC50 [5]: 274 nM; activity at 10 µM (CYP2D6): 102%; activity at 10 µM (CYP2C9): 99%; activity at 10 µM (CYP2C19): 86.3%; activity at 10 µM (CYP1A2): 38.3%; inhibition at 1 µM (hERG (KCNH2) [6]): 29.3%
47.1	–	Cc1csc(C(=O)Nc2ccccn2)n1	–
34.5	65.5	O=C(Nc1ccccn1)c1ccccn1	–
16.1	17.7	Cc1ccnc(Cl)c1NC(=O)c1ccccn1	–
-0.1	–	N#Cc1cccc(NC(=O)c2nc(Br)cs2)c1	–
19.5	–	N#Cc1csc(C(=O)Nc2cccc(Br)c2)n1	–
9.6	–	N#Cc1cccc(NC(=O)c2nc(Br)cs2)n1	–
19.8	–	O=C(Nc1cccc(Br)n1)c1nc(Br)cs1	–
50.1	–	Cc1cccc(NC(=O)c2nc(C)cs2)n1	–
81	–	Cc1cccc(NC(=O)c2nc(Br)cs2)n1	activity at 10 µM (CYP3A4): 87.3%; inhibition at 10 µM (hERG (KCNH2) [1]): 34.8%; remaining at 0.5 h, 1 µM [2]: 7.25%; inhibition at 0.1 µM (hERG (KCNH2) [4]): 15%; IC50 [5]: 159 nM; activity at 10 µM (CYP2D6): 99.2%; activity at 10 µM (CYP2C9): 88.2%; activity at 10 µM (CYP2C19): 7.4%; activity at 10 µM (CYP1A2): 11%; inhibition at 1 µM (hERG (KCNH2) [6]): 19.4%
8.3	–	N#Cc1cccc(NC(=O)c2nc(C#N)cs2)n1	–
25.6	30.3	O=C(Nc1cccnc1)c1ccccn1	–
22.8	23.1	COc1cccc(C(=O)Nc2cccnc2)n1	–
16.2	30.7	O=C(Nc1ccc(Cl)cn1)c1ccccn1	–
18	–	Cc1csc(C(=O)Nc2cccc(Br)c2)n1	–
3.1	–	Cc1csc(C(=O)Nc2cccc(F)c2)n1	–
24.7	–	Cc1cccc(NC(=O)c2nc(C#N)cs2)n1	–
32.2	–	Cc1csc(C(=O)Nc2cccc(Cl)c2)n1	–
-0.4	–	N#Cc1csc(C(=O)Nc2cccc(F)n2)n1	–
3.2	34	N#Cc1cccc(NC(=O)c2cccc(F)n2)c1	–

inhibition [3] [%]	inhibition [7] [%]	SMILES	also measured
11.6	–	Cc1cccc(NC(=O)c2nc(C)cs2)c1	–
14	25.5	COc1ccc(NC(=O)c2ccccn2)cn1	–
45	–	Cc1csc(C(=O)Nc2cccc(Cl)n2)n1	–
13.7	–	O=C(Nc1cccc(F)c1)c1nc(Br)cs1	–
16.6	–	Cc1csc(C(=O)Nc2cccc(C#N)c2)n1	–
-9.4	–	N#Cc1csc(C(=O)Nc2cccc(Cl)n2)n1	–
18.5	43.4	COc1ccc(NC(=O)c2cccc(Cl)n2)cn1	–
58.1	–	O=C(Nc1cccc(Cl)c1)c1nc(Br)cs1	–
40.9	–	Cc1cccc(NC(=O)c2nc(Br)cs2)c1	–
3.85	35.4	O=C(Nc1ccc(Cl)nc1Cl)c1ccccn1	–
15.7	18.6	Cc1ccnc(Cl)c1NC(=O)c1cccc(Cl)n1	–
10.5	52.1	Cc1cccc(C(=O)Nc2cccc(Cl)c2)n1	–
13.1	33.4	O=C(Nc1cccc(Cl)c1)c1cccc(F)n1	–
27.6	–	O=C(Nc1cccc(F)n1)c1nc(Br)cs1	–
-7.3	–	N#Cc1csc(C(=O)Nc2cccc(Cl)c2)n1	–
60	–	O=C(Nc1cccc(Cl)n1)c1nc(Br)cs1	–
18.4	68.1	Cc1cccc(C(=O)Nc2cccc(C#N)c2)n1	–
19.1	33.4	O=C(Nc1cccnc1)c1cccc(Cl)n1	–
13.8	51	O=C(Nc1cc(Cl)cnc1Cl)c1ccccn1	–
